Assay results published in patent publication US12065438B2, “Substituted tricyclic compounds as indoleamine 2,3-dioxygenase inhibitors” (Merck Sharp & Dohme LLC, priority 2019, dated 2024).

Tests used:
IDO1 [1] = target: T1, IDO1 (Homo sapiens, UniProt P14902); experiment: IDO1 Cellular Assay in HeLa Cells Stimulated with IFNγ; format: cell-based; set-up: endogenous in cells; host or cells: HeLa cells stimulated with IFNγ; conditions: HeLa cells stimulated with IFNγ 100 ng/mL, 300 uM L-tryptophan, about 48 hours, fluorescence readout; read-out: IDO1 HELA Cell Assay, IC50
T1 sequence (P14902 whole entry): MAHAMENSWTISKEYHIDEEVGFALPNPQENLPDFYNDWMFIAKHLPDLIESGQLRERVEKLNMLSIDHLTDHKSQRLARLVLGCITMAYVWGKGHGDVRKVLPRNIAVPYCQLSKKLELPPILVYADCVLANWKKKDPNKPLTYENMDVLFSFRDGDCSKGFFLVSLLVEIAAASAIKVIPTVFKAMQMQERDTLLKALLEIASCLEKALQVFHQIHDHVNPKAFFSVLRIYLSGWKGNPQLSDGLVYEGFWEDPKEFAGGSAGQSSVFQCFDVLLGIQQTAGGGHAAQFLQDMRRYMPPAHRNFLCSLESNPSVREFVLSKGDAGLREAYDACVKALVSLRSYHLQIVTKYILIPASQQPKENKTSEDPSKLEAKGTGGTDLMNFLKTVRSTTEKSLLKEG
Protocol: Biological Assays IDO1 Cellular Assay in HeLa Cells Stimulated with IFNγ HeLa cells were cultured in complete HeLa culture medium (90% EMEM, 10% heat-inactivated fetal bovine serum) and expanded to about 1×10^9 cells. The cells were then collected and frozen down at 1×10^7 cells/vial in 1 mL frozen medium (90% complete HeLa culture medium, 10% DMSO). Compounds to be tested were serially diluted in ten 3-fold steps in DMSO starting from 10 mM DMSO stocks in Echo low volume plate(s). Compound dilutions or DMSO alone were then dispensed from the dilution plate(s) into Greiner black 384-well assay plate(s) (catalog #781086, 50 nL/well) using an Echo 550 acoustic liquid handler (Labcyte). Frozen HeLa cells were thawed and transferred into HeLa assay medium (99% complete HeLa culture medium, 1% Pen/Strep) with 20 mL medium/vial of cells. The cells were spun down at 250 g in a table top centrifuge for 5 min and suspended in same volume of HeLa assay medium. The cells were then counted and adjusted to a density of 2×10^5 cells/mL in HeLa assay medium. Sterile L-tryptophan were added to the cells with final concentration of 300 uM L-tryptophan. A small aliquot (2 mL/plate) of HeLa cells were set aside and were not treated with IFNγ, to serve as the Max-E control. The rest of HeLa cells were added with sterile IFNγ (Cat #285-IF, R & D systems) with a final concentration of 100 ng/mL. HeLa cells with and without IFNγ were dispensed to the respective wells of 384-well assay plates containing the compounds. The plates were incubated for about 48 hours at a 37° C., 5% CO2 incubator. Afterwards, 12 μL of 0.5 M methyl isonipecotate in dimethyl sulfoxide were added into each well and the plates were sealed and incubated at 37° C. without CO2 overnight. The plates were centrifuged for 1 min at 200×g. The resulting fluorescence was measured in a Spectramax plate reader (Molecular Devices) with a 400 nm excitation filter and a 510 nm emission filter. The fluorescence intensity of each well was corrected for the background observed in wells with non-IFNγ-treated cells and was expressed as a fraction of the intensity observed in wells of IFNγ-treated cells and DMSO only. Potencies were calculated by […] least squares fit to the four parameter logistic IC50 equation.

IDO1 [2] = target: T1, IDO1; experiment: IDO1 Human Whole Blood Assay; format: cell-based; conditions: LPS and IFNγ 100 ng/mL, overnight (18 h), kynurenine by LC/MS/MS
Protocol: IDO1 Human Whole Blood Assay
Compounds to be tested were serially diluted in ten 3-fold steps in DMSO starting from 10 mM. 3 μL of compound dilutions or DMSO alone were then dispensed from the dilution plate into a polypropylene 96-well assay plate containing 97 μL of RPMI medium using an Echo 555 acoustic liquid handler (Labcyte). LPS and IFNγ was prepared in RPMI medium to a 10× of final conc. (1000 ng/mL), final concentration is 100 ng/mL.
240 μL of blood was transferred to each of the wells of a v-bottom 96 well plate. 30 μL of compound was transferred from intermediate dilution plate, and incubated for 15 min. 30 μL from stimulants was then transferred to blood and mixed thoroughly. Plate was covered with breathable membrane and incubated at 37° C. for overnight (18 h).
On day 2, isotope labeled standard solutions of kynurenine and tryptophan was made in water at 10× concentration and 30 μL was added to the blood at 3 μM final concentration. The assay plates were centrifuged at 300×G for 10 min with no brake to separate plasma from red blood cells. 60 μL of plasma samples was removed without disturbing red blood cells. Plasma was diluted with RPMI in 1:1 ratio and proteins were precipitated out with two volumes of Acetonitrile. The plates were centrifuged at 4000×G for 60 min. 20 μL of supernatant was carefully transferred to a 384 well plate containing 40 μL of 0.1% formic acid in water and analyzed by LC/MS/MS.
LC/MS/MS analyses were performed using Thermo Fisher's LX4-TSQ Quantum Ultra system. This system consists of four Agilent binary high-performance liquid chromatography (HPLC) pumps and a TSQ Quantum Ultra triple quadrupole MS/MS instrument. For each sample, 5 μL were injected onto an Atlantis T3 column (2.1 mm×150 mm, 3 μm particle size) from Waters. The mobile phase gradient pumped at 0.8 mL/min was used to elute the analytes from the column at 25° C. The elution started at 0% B increasing linearly to 25% B at 6.5 min, holding at 25% for 1 min, re-equilibrating to 10 min. Mobile phase A consisted of 0.1% formic acid in water. Mobile phase B consisted of 0.1% of formic acid in acetonitrile. Data were acquired in positive mode using a HESI interface. The operational parameters for the TSQ Quantum Ultra instrument were a spray voltage of 4000 V, capillary temperature of 380° C., vaporizer temperature 400° C., shealth gas 60 arbitrary units, Aux gas 20 arbitrary units, tube lens 85 and collision gas 1.2 mTorr. SRM chromatograms of kynurenine (Q1: 209.2>Q3:94.0) and internal standard (Q1: 215.3>Q3:98.2) were collected for 90 sec. The peak area was integrated by Xcalibur Quan software. The ratios between the kynurenine generated in the reaction and 2D6-Kynurenine spiked-in internal standard were used to generate percentage inhibition and IC50 values. Compounds were titrated and IC50's were calculated by 4 parameter sigmoidal curve fitting formula.

IC50 (IDO1 [1]) | IC50 (IDO1 [2]) | Compound
6.6 nM | 126 nM | 4-fluoro-N-(2-((6aS,7aR)-5-(2-methylpyrimidin-4-yl)-6,6a,7,7a-tetrahydro-5H-cyclopropa[c][1,5]naphthyridin-2-yl)propan-2-yl)benzamide [Example 30]
2.92 nM | 37 nM | O=C(C1CC1)N1CC2CC2c2cc(C3(C(=O)Nc4ccc(F)cc4)CCC3)ccc21 (single isomer, unassigned) [Example 4, 1-(3-(cyclopropanecarbonyl)-1a,2,3,7b-tetrahydro-1H-cyclopropa[c]quinolin-6-yl)-N-(4-fluorophenyl)cyclobutanecarboxamide]
6.03 nM | 946 nM | O=C(NC1(c2ccc3c(n2)[C@@H]2C[C@@H]2CN3C(=O)OC2CC2)CC1)c1ccc(F)cc1 (single isomer, unassigned) [Example 21]
7.56 nM | 778 nM | CC(C)(NC(=O)c1ccc(F)cc1)c1ccc2c(n1)C1CC1CN2C(=O)OC1CC1 (single isomer, unassigned) [Example 32, cyclopropyl 2-(2-(4-fluorobenzamido)propan-2-yl)-6,6a,7,7a-tetrahydro-5H-cyclopropa[c][1,5]naphthyridine-5-carboxylate]
4.05 nM | 465 nM | CC(C)(NC(=O)c1ccc(F)cc1)c1ccc2c(n1)[C@@H]1C[C@@H]1CN2C(=O)OC1CC1 (single isomer, unassigned) [Example 33]
2.83 nM | 54 nM | CCC(NC(=O)c1ccc(F)cc1)c1ccc2c(n1)C1CC1CN2C(=O)OC1CC1 (single isomer, unassigned) [Example 37, cyclopropyl 2-(1-(4-fluorobenzamido)propyl)-6,6a,7,7a-tetrahydro-5H-cyclopropa[c][1,5]naphthyridine-5-carboxylate]
3.17 nM | – | Cc1nccc(N2C[C@@H]3C[C@@H]3c3nc([C@]4(NC(=O)c5ccc(F)cc5)C[C@@H]4C)ccc32)n1 [Example 42, 4-fluoro-N-((1S,2S)-2-methyl-1-((6aR,7aS)-5-(2-methyl-pyrimidin-4-yl)-6,6a,7,7a-tetra-hydro-5H-cyclopropa[c][1,5]-naphthyridin-2-yl)cyclopropyl)-benzamide]
3.27 nM | – | Cc1nccc(N2C[C@H]3C[C@H]3c3nc([C@@]4(NC(=O)c5ccc(F)cc5)C[C@H]4C)ccc32)n1 [Example 43, 4-fluoro-N-((1R,2R)-2-methyl-1-((6aS,7aR)-5-(2-methyl-pyrimidin-4-yl)-6,6a,7,7a-tetra-hydro-5H-cyclopropa[c][1,5]-naphthyridin-2-yl)cyclopropyl)-benzamide]
4.34 nM | – | Cc1nccc(N2C[C@H]3C[C@H]3c3nc([C@]4(NC(=O)c5ccc(F)cc5)C[C@H]4C)ccc32)n1 [Example 44, 4-fluoro-N-((1S,2R)-2-methyl-1-((6aS,7aR)-5-(2-methyl-pyrimidin-4-yl)-6,6a,7,7a-tetra-hydro-5H-cyclopropa[c][1,5]-naphthyridin-2-yl)cyclopropyl)-benzamide]
3.39 nM | – | Cc1nccc(N2C[C@H]3C[C@H]3c3nc([C@@]4(NC(=O)c5ccc(F)cc5)C[C@@H]4C)ccc32)n1 [Example 45, 4-fluoro-N-((1R,2S)-2-methyl-1-((6aS,7aR)-5-(2-methyl-pyrimidin-4-yl)-6,6a,7,7a-tetra-hydro-5H-cyclopropa[c][1,5]-naphthyridin-2-yl)cyclopropyl)-benzamide]
24.4 nM | – | Cc1nccc(N2C[C@H]3C[C@H]3c3nc([C@]4(NC(=O)c5ccc(F)cc5)C[C@@H]4C)ccc32)n1 [Example 46, 4-fluoro-N-((1S,2S)-2-methyl-1-((6aS,7aR)-5-(2-methyl-pyrimidin-4-yl)-6,6a,7,7a-tetra-hydro-5H-cyclopropa[c][1,5]-naphthyridin-2-yl)cyclopropyl)-benzamide]
76.3 nM | – | Cc1nccc(N2c3ccc(C4(NC(=O)c5ccc(F)cc5)CC4)nc3C3CC2C3C)n1 (stereo not shown) [Example 48, 4-fluoro-N-(1-(3-methyl-1-(2-methylpyrimidin-4-yl)-1,2,3,4-tetrahydro-2,4-methano-1,5-naphthyridin-6-yl)cyclopropyl)benzamide]
20.4 nM | – | O=C(NC1(c2ccc3c(n2)C2CC(C2)N3C(=O)OCc2ccccc2)CC1)c1ccc(F)cc1 [Example 49, benzyl 6-(1-(4-fluorobenzamido)cyclopropyl)-3,4-dihydro-2,4-methano-1,5-naphthyridine-1(2H)-carboxylate]
5.76 nM | – | O=C(NC1(c2ccc3c(n2)C2CC(C2)N3C(=O)OC2CC2)CC1)c1ccc(F)cc1 [Example 50, cyclopropyl 6-(1-(4-fluorobenzamido)cyclopropyl)-3,4-dihydro-2,4-methano-1,5-naphthyridine-1(2H)-carboxylate]
8.08 nM | – | Cc1nccc(N2c3ccc(C4(NC(=O)c5ccc(F)cc5)CC4)nc3C3CC2C3)n1 [Example 51, 4-fluoro-N-(1-(1-(2-methylpyrimidin-4-yl)-1,2,3,4-tetrahydro-2,4-methano-1,5-naphthyridin-6-yl)cyclopropyl)benzamide]
96.6 nM | – | CC(C)(C)OC(=O)N1C[C@@H]2C[C@@H]2c2nc(C3(NC(=O)c4ccc(F)cc4)CC3)ccc21 [Example 52, tert-butyl (6aR,7aS)-2-(1-(4-fluorobenzamido)cyclopropyl)-6,6a,7,7a-tetrahydro-5H-cyclo-propa[c][1,5]naphthyridine-5-carboxylate]
4.62 nM | – | CC(C)(C)OC(=O)N1C[C@H]2C[C@H]2c2nc(C3(NC(=O)c4ccc(F)cc4)CC3)ccc21 [Example 53, tert-butyl (6aS,7aR)-2-(1-(4-fluorobenzamido)cyclopropyl)-6,6a,7,7a-tetrahydro-5H-cyclo-propa[c][1,5]naphthyridine-5-carboxylate]
4900 nM | – | CC(C)(NC(=O)c1ccc(F)cc1)c1ccc2c(n1)C1CC1CN2 (stereo not shown) [Example 54, 4-fluoro-N-(2-(6,6a,7,7a-tetra-hydro-5H-cyclopropa[c][1,5]-naphthyridin-2-yl)propan-2-yl)-benzamide]
16.6 nM | – | CC(C)(C)OC(=O)N1CC2CC2c2nc(C(C)(C)NC(=O)c3ccc(F)cc3)ccc21 (stereo not shown) [Example 55, tert-butyl 2-(2-(4-fluorobenz-amido)propan-2-yl)-6,6a,7,7a-tetrahydro-5H-cyclopropa[c]-[1,5]naphthyridine-5-carboxylate]
